From patent publication US8748496B2, “Methods of treatment of hyperuricemia and associated disease states” (Elan Pharmaceuticals, Inc., priority 2008, dated 2014)
Entries after “also recorded” stand apart in the source; their conditions may differ.

System: serum uric acid levels
Assay: Phase 1 open-label multiple dosing study, serum uric acid in healthy adult subjects
Format: in vivo, human
Settings: 2000 mg BID oral 10 days; for uric acid, Mean: N=8
Description: A Phase 1 single site, open-label multiple dosing study evaluating a scyllo-inositol formulation was conducted in healthy adult subjects. Approximately 8 healthy male subjects received 2000 mg of scyllo-inositol twice daily (4-500 mg tablets orally administered twice a day) for 10 days. Blood samples were collected 12 hours prior to the first dose (day 0) and on days 6, 14, and 21. Scyllo-inositol 500 mg capsules were BSE/TSE-free soft gelatin, white, opaque capsules and no excipients were used in the finished product. Capsules were supplied in 60-mL, oblong, white pharmaceutical high density polyethylene (HDPE) bottles with white caps. Each 60-mL bottle contained 30 capsules of 500 mg strength scyllo-inositol.

[1] = Baseline (Day 0, before first dose)

## O[C@H]1[C@H](O)[C@@H](O)[C@H](O)[C@@H](O)[C@@H]1O [scyllo-inositol, 1,2,3,4,5,6-cyclohexanehexyl, (1alpha,2beta,3alpha,4beta,5alpha,6beta)]
[1]
  uric acid, Max: 375 micromole per liter
  uric acid, Median: 300.4 micromole per liter
  uric acid, Min: 256 micromole per liter
  uric acid, Mean: 305.6 micromole per liter
Day 6
  uric acid, Max: 250 micromole per liter
  uric acid, Max Change from Baseline: −12 micromole per liter
  uric acid, Mean Change from Baseline: −88.8 micromole per liter
  uric acid, Median: 226.0 micromole per liter
  uric acid, Median Change from Baseline: −72.6 micromole per liter
  uric acid, Min: 155 micromole per liter
  uric acid, Min Change from Baseline: −172 micromole per liter
  uric acid, Mean: 216.8 micromole per liter
Day 14
  uric acid, Max: 274 micromole per liter
  uric acid, Max Change from Baseline: −12 micromole per liter
  uric acid, Mean Change from Baseline: −70.6 micromole per liter
  uric acid, Median: 237.9 micromole per liter
  uric acid, Median Change from Baseline: −74.4 micromole per liter
  uric acid, Min: 196 micromole per liter
  uric acid, Min Change from Baseline: −131 micromole per liter
  uric acid, Mean: 243.9 micromole per liter
Day 21
  uric acid, Max: 333 micromole per liter
  uric acid, Max Change from Baseline: 65 micromole per liter
  uric acid, Mean Change from Baseline: −16.4 micromole per liter
  uric acid, Median: 291.5 micromole per liter
  uric acid, Median Change from Baseline: −23.8 micromole per liter
  uric acid, Min: 250 micromole per liter
  uric acid, Min Change from Baseline: −83 micromole per liter
  uric acid, Mean: 289.2 micromole per liter
Day 21, last follow-up visit
  uric acid after the end of treatment: returned to Day 0 values by Day 21
All 8 subjects
  serum uric acid levels following the start of treatment: decreased in all subjects; also recorded: a decrease in serum uric acid levels was observed in all subjects
During the study
  mean uric acid levels versus normal range: remained within the normal range
